Reference: ChEMBL document CHEMBL3091424, “Anti-tubercular agents. Part 8: synthesis, antibacterial and antitubercular activity of 5-nitrofuran based 1,2,3-triazoles” (Bioorg Med Chem Lett, 2013)
Values after ≈ are worked out from the molar mass of the structure shown. Active and inactive are the calls of the source. The rule behind the calls is not given here.

Experiments:
Pseudomonas aeruginosa [1] = test: Antimicrobial activity against Pseudomonas aeruginosa MTCC 2453 after 24 hrs by well diffusion method; type: functional; settings: MTCC 2453, 24 h
Vero = test: Cytotoxicity against african green monkey Vero cells; type: cell-based; settings: Chlorocebus sabaeus
Staphylococcus aureus [2] = test: Bactericidal activity against Staphylococcus aureus MTCC 96 after 24 hrs; type: functional; settings: MTCC 96, 24 h
Staphylococcus aureus [3] = test: Antimicrobial activity against Staphylococcus aureus MTCC 96 after 24 hrs by well diffusion method; type: functional; settings: MTCC 96, 24 h
Staphylococcus aureus [4] = test: Antibiofilm activity against Staphylococcus aureus MLS-16 MTCC 2940 after 24 hrs by crystal violet assay; type: functional, organism-based; settings: MLS-16 MTCC 2940, 24 h
Staphylococcus aureus [5] = test: Antimicrobial activity against Staphylococcus aureus MLS-16 MTCC 2940 after 24 hrs by well diffusion method; type: functional; settings: MLS-16 MTCC 2940, 24 h
Escherichia coli [6] = test: Bactericidal activity against Escherichia coli MTCC 739 after 24 hrs; type: functional; settings: MTCC 739, 24 h
Raoultella planticola [7] = test: Antimicrobial activity against Klebsiella planticola MTCC 530 after 24 hrs by well diffusion method; type: functional; settings: MTCC 530, 24 h
Staphylococcus aureus [8] = test: Bactericidal activity against Staphylococcus aureus MLS-16 MTCC 2940 after 24 hrs; type: functional; settings: MLS-16 MTCC 2940, 24 h
Bacillus subtilis [9] = test: Antimicrobial activity against Bacillus subtilis MTCC 121 after 24 hrs by well diffusion method; type: functional; settings: MTCC 121, 24 h
Candida albicans = test: Antimicrobial activity against Candida albicans MTCC 3017 at 150 ug/ml after 24 hrs by well diffusion method; type: functional, organism-based
Pseudomonas aeruginosa [10] = test: Bactericidal activity against Pseudomonas aeruginosa MTCC 2453 after 24 hrs; type: functional; settings: MTCC 2453, 24 h
MRC5 = test: Cytotoxicity against human MRC5 cells; type: cell-based
[11] = tested on: Mycobacterium tuberculosis; test: Ratio of linezolid MIC to compound MIC for Mycobacterium tuberculosis H37Rv after 3 weeks by broth dilution method; type: functional
Staphylococcus aureus [12] = test: Antibiofilm activity against Staphylococcus aureus MTCC 96 after 24 hrs by crystal violet assay; type: functional, organism-based; settings: for IC50: MTCC 96, 24 h
Bacillus subtilis [13] = test: Bactericidal activity against Bacillus subtilis MTCC 121 after 24 hrs; type: functional; settings: MTCC 121, 24 h
Raoultella planticola [14] = test: Antibiofilm activity against Klebsiella planticola MTCC 530 after 24 hrs by crystal violet assay; type: functional, organism-based; settings: for IC50: MTCC 530, 24 h
[15] = tested on: Mycobacterium tuberculosis; test: Antimicrobial activity against Mycobacterium tuberculosis H37Rv after 3 weeks by broth dilution method; type: functional; settings: for MIC: 504 h
Escherichia coli [16] = test: Antimicrobial activity against Escherichia coli MTCC 739 after 24 hrs by well diffusion method; type: functional; settings: MTCC 739, 24 h
Raoultella planticola [17] = test: Bactericidal activity against Klebsiella planticola MTCC 530 after 24 hrs; type: functional; settings: MTCC 530, 24 h
Micrococcus luteus [18] = test: Antimicrobial activity against Micrococcus luteus MTCC 2470 after 24 hrs by well diffusion method; type: functional; settings: MTCC 2470, 24 h
Enterococcus faecalis = test: Antimicrobial activity against vancomycin -resistant Enterococcus faecalis after 24 hrs by microdilution method; type: functional
Micrococcus luteus [19] = test: Bactericidal activity against Micrococcus luteus MTCC 2470 after 24 hrs; type: functional; settings: MTCC 2470, 24 h
Staphylococcus aureus [20] = test: Antimicrobial activity against methicillin-resistant Staphylococcus aureus after 24 hrs by microdilution method; type: functional

Structure (SMILES) | MIC (Pseudomonas aeruginosa [1]) | IC50 (Vero) | MBC (Staphylococcus aureus [2]) | MIC (Staphylococcus aureus [3]) | IC50 (Staphylococcus aureus [4]) | MIC (Staphylococcus aureus [5]) | MBC (Escherichia coli [6]) | MIC (Raoultella planticola [7]) | MBC (Staphylococcus aureus [8]) | MIC (Bacillus subtilis [9]) | Activity (Candida albicans) | MBC (Pseudomonas aeruginosa [10]) | IC50 (MRC5) | MBC (Bacillus subtilis [13]) | IC50 (Raoultella planticola [14]) | MIC (Escherichia coli [16]) | MBC (Raoultella planticola [17]) | MIC (Micrococcus luteus [18]) | MBC (Micrococcus luteus [19]) | Activity [15] | other results
O=C(NCc1cn(Cc2ccc(F)c(Cl)c2)nn1)c1ccc([N+](=O)[O-])o1 | > 150 µg/mL | 344 µM | 18.8 µg/mL (≈ 49.4 µM) | 18.8 µg/mL (≈ 49.4 µM) | 1.1 µg/mL (≈ 2.9 µM) | 2.34 µg/mL (≈ 6.16 µM) | 18.8 µg/mL (≈ 49.4 µM) | 18.8 µg/mL (≈ 49.4 µM) | 2.34 µg/mL (≈ 6.16 µM) | 1.17 µg/mL (≈ 3.08 µM) | inactive | > 150 µg/mL | 254 µM | 1.17 µg/mL (≈ 3.08 µM) | 12.2 µg/mL (≈ 32.1 µM) | 18.8 µg/mL (≈ 49.4 µM) | 37.5 µg/mL (≈ 98.8 µM) | 2.34 µg/mL (≈ 6.16 µM) | 2.34 µg/mL (≈ 6.16 µM) | – | Ratio [11]: 4; IC50 (Staphylococcus aureus [12]): 13.6 µg/mL (≈ 35.8 µM); MIC [15]: 0.25 µg/mL (≈ 0.658 µM); MIC (Enterococcus faecalis): > 64 µg/mL; MIC (Staphylococcus aureus [20]): 8 µg/mL (≈ 21.1 µM)
CC(=O)NC[C@H]1CN(c2ccc(N3CCOCC3)c(F)c2)C(=O)O1 [LINEZOLID] | – | – | – | – | – | – | – | – | – | – | – | – | – | – | – | – | – | – | – | – | MIC [15]: 1 µg/mL (≈ 2.96 µM); MIC (Staphylococcus aureus [20]): 8 µg/mL (≈ 23.7 µM)
COc1cc(Cn2cc(CNC(=O)c3ccc([N+](=O)[O-])o3)nn2)ccc1F | > 150 µg/mL | 225 µM | > 150 µg/mL | > 150 µg/mL | 2.7 µg/mL (≈ 7.19 µM) | 9.37 µg/mL (≈ 25 µM) | > 150 µg/mL | 37.5 µg/mL (≈ 99.9 µM) | 9.37 µg/mL (≈ 25 µM) | 2.34 µg/mL (≈ 6.23 µM) | inactive | > 150 µg/mL | 155 µM | 4.68 µg/mL (≈ 12.5 µM) | 22.7 µg/mL (≈ 60.5 µM) | > 150 µg/mL | 37.5 µg/mL (≈ 99.9 µM) | 1.17 µg/mL (≈ 3.12 µM) | 1.17 µg/mL (≈ 3.12 µM) | inactive | inhibition (Staphylococcus aureus [12]): inactive
COc1ccc(Cn2cc(CNC(=O)c3ccc([N+](=O)[O-])o3)nn2)cc1O | > 150 µg/mL | 174 µM | 75 µg/mL (≈ 201 µM) | 37.5 µg/mL (≈ 100 µM) | 5.1 µg/mL (≈ 13.7 µM) | 9.37 µg/mL (≈ 25.1 µM) | 75 µg/mL (≈ 201 µM) | 18.8 µg/mL (≈ 50.2 µM) | 18.8 µg/mL (≈ 50.2 µM) | 9.37 µg/mL (≈ 25.1 µM) | inactive | > 150 µg/mL | 189 µM | 18.8 µg/mL (≈ 50.2 µM) | 11.3 µg/mL (≈ 30.3 µM) | 37.5 µg/mL (≈ 100 µM) | 18.8 µg/mL (≈ 50.2 µM) | 9.37 µg/mL (≈ 25.1 µM) | 9.37 µg/mL (≈ 25.1 µM) | inactive | IC50 (Staphylococcus aureus [12]): 10.3 µg/mL (≈ 27.6 µM)
O=C(NCc1cn(Cc2ccc([N+](=O)[O-])cc2)nn1)c1ccc([N+](=O)[O-])o1 | > 150 µg/mL | 291 µM | > 150 µg/mL | > 150 µg/mL | 3.8 µg/mL (≈ 10.2 µM) | 4.68 µg/mL (≈ 12.6 µM) | > 150 µg/mL | 18.8 µg/mL (≈ 50.4 µM) | 4.68 µg/mL (≈ 12.6 µM) | 2.34 µg/mL (≈ 6.29 µM) | inactive | > 150 µg/mL | 213 µM | 4.68 µg/mL (≈ 12.6 µM) | 17.9 µg/mL (≈ 48.1 µM) | > 150 µg/mL | 37.5 µg/mL (≈ 101 µM) | 4.68 µg/mL (≈ 12.6 µM) | 9.37 µg/mL (≈ 25.2 µM) | – | inhibition (Staphylococcus aureus [12]): inactive; MIC [15]: 8 µg/mL (≈ 21.5 µM); MIC (Enterococcus faecalis): > 64 µg/mL; MIC (Staphylococcus aureus [20]): 8 µg/mL (≈ 21.5 µM)
O=C(NCc1cn(Cc2ccc(C(F)(F)F)cc2)nn1)c1ccc([N+](=O)[O-])o1 | > 150 µg/mL | 289 µM | > 150 µg/mL | > 150 µg/mL | 8.4 µg/mL (≈ 21.2 µM) | 2.34 µg/mL (≈ 5.92 µM) | > 150 µg/mL | > 150 µg/mL | 2.34 µg/mL (≈ 5.92 µM) | 1.17 µg/mL (≈ 2.96 µM) | inactive | > 150 µg/mL | 321 µM | 4.68 µg/mL (≈ 11.8 µM) | – | > 150 µg/mL | > 150 µg/mL | 2.34 µg/mL (≈ 5.92 µM) | 2.34 µg/mL (≈ 5.92 µM) | inactive | IC50 (Staphylococcus aureus [12]): 64.7 µg/mL (≈ 164 µM); inhibition (Raoultella planticola [14]): inactive
COc1ccc(Cn2cc(CNC(=O)c3ccc([N+](=O)[O-])o3)nn2)cc1F | > 150 µg/mL | 312 µM | > 150 µg/mL | > 150 µg/mL | 3.4 µg/mL (≈ 9.06 µM) | 4.68 µg/mL (≈ 12.5 µM) | > 150 µg/mL | 18.8 µg/mL (≈ 50 µM) | 9.37 µg/mL (≈ 25 µM) | 2.34 µg/mL (≈ 6.23 µM) | inactive | > 150 µg/mL | 324 µM | 4.68 µg/mL (≈ 12.5 µM) | 9.8 µg/mL (≈ 26.1 µM) | > 150 µg/mL | 18.8 µg/mL (≈ 50 µM) | 4.68 µg/mL (≈ 12.5 µM) | 9.37 µg/mL (≈ 25 µM) | inactive | inhibition (Staphylococcus aureus [12]): inactive
